# Assay results as given in patent publication US10087216B2 (priority 2014, dated 2018).
# System: potassium ion channel current of the DRG neurons
# Test: cells
# Format: cell-based, SD rats
compound,measurement,setting,value
"Nc1ccncc1 [4AP, 4-aminopyridine]",Current recorded after loading,5 mM,0.9766 nA
same,inhibition at 5000 µM,"Rattus norvegicus, DRG neuron, read-out: Current inhibition rate",33.8%
